The text below walks through data of patent publication US20230141600A1, “IMIDAZOPYRAZINE DERIVATIVES” (priority 2020, published 2023).

Where a name gives a salt, the structure may show the parent alone.

The test system of the first experiment is Acinetobacter baumannii ATCC17961. Briefly: 90% growth inhibitory concentration (IC90) determination, antimicrobial susceptibility testing. In kind it is cell-based. The note with it: 90% growth inhibition, Iso-Sensitest broth, OD 600 nm over 16 h, 35±2° C.; read-out: ATCC 17961 IC90. The method in brief: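 Twofold serial dilutions (e.g. 50 to 0.097 μM final) in Iso-Sensitest broth, inoculated at ~5×10^5 CFU/ml and incubated at 35±2 °C for 16 h with OD600 read every minute. IC90 taken from growth inhibition during the logarithmic phase.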
Regarding `CCc1cc(Nc2nccn3c(-c4ccc(OC(F)F)c(F)c4F)cnc23)ccc1C(=O)NCCC1CC[N+](C)(CC2CNC2)CC1` (stereo not drawn) [Example 91, N-[2-[1-(azetidin-3-ylmethyl)-1-methyl-piperidin-1-ium-4-ylethyl]-4-[[3-[4-(difluoromethoxy)-2,3-difluoro-phenyl]imidazo[1,2-a]pyrazin-8-yl]amino]-2-ethyl-benzamide Diformate], the concentration for an effect of 90% (IC90) is 834 nM.

The same experiment, now with this note: Acinetobacter baumannii, ATCC17961, 16 h, 90% growth inhibition, Iso-Sensitest broth, OD 600 nm over 16 h, 35±2° C.; read-out: ATCC 17961 IC90.
`CCc1cc(Nc2nccn3c(-c4ccc(OC(F)F)c(F)c4F)cnc23)ccc1C(=O)NCCCCC[N+](C)(CC1CNC1)CC1CNC1` [Example 89, Bis(azetidin-3-ylmethyl)-[5-[[4-[[3-[4-(difluoromethoxy)-2,3-difluoro-phenyl]imidazo[1,2-a]pyrazin-8-yl]amino]-2-ethyl-benzoyl]amino]pentyl]-methyl-ammonium bis(2,2,2-trifluoroacetate)]: the IC90 stood at 634 nM.
The same measure, in the same setting: for `CCc1cc(Nc2nccn3c(-c4ccc(OC(F)F)c(F)c4F)cnc23)ccc1C(=O)NCCC(=O)N1CC[N+](C)(CC2CNC2)CC1` [Example 92, N-[3-[4-(Azetidin-3-ylmethyl)-4-methyl-piperazin-4-ium-1-yl]-3-oxo-propyl]-4-[[3-[4-(difluoromethoxy)-2,3-difluoro-phenyl]imidazo[1,2-a]pyrazin-8-yl]amino]-2-ethyl-benzamide bis(2,2,2-trifluoroacetate)] the value was 332 nM; for `CCc1cc(Nc2nccn3c(-c4ccc(OC(F)F)c(F)c4F)cnc23)ccc1C(=O)N1CCN(C(=O)C2CC[N+](C)(CC3CNC3)CC2)CC1C(=O)OC` (stereo not drawn) [Example 93, Methyl 4-[1-(azetidin-3-ylmethyl)-1-methyl-piperidin-1-ium-4-carbonyl]-1-[4-[[3-[4-(difluoromethoxy)-2,3-difluoro-phenyl]imidazo[1,2-a]pyrazin-8-yl]amino]-2-ethyl-benzoyl]piperazine-2-carboxylate bis(2,2,2-trifluoroacetate)], 909 nM; for `CCc1cc(Nc2nccn3c(-c4ccc(OC(F)F)c(F)c4F)cnc23)ccc1C(=O)N1CCN(C(=O)C2CC[N+](C)(CC3CNC3)CC2)C(C(=O)OC)C1` (stereo not drawn) [Example 94, methyl 1-[1-(azetidin-3-ylmethyl)-1-methyl-piperidin-1-ium-4-carbonyl]-4-[4-[[3-[4-(difluoromethoxy)-2,3-difluoro-phenyl]imidazo[1,2-a]pyrazin-8-yl]amino]-2-ethyl-benzoyl]piperazine-2-carboxylate tris(2,2,2-trifluoroacetate)], 457 nM.
Still for that read-out and setting: for `CCc1cc(Nc2nccn3c(-c4ccc(OC(F)F)c(F)c4F)cnc23)ccc1C(=O)N1CC2(C1)CN(C(=O)C1CC[N+](C)(CC3CCNC3)CC1)C2` (stereo not drawn) [Example 95, [4-[[3-[4-(difluoromethoxy)-2,3-difluoro-phenyl]imidazo[1,2-a]pyrazin-8-yl]amino]-2-ethyl-phenyl]-[2-[1-methyl-1-(pyrrolidin-3-ylmethyl)piperidin-1-ium-4-carbonyl]-2,6-diazaspiro[3.3]heptan-6-yl]methanone bis(2,2,2-trifluoroacetate)] the value was 725 nM; for `CCc1cc(Nc2nccn3c(-c4ccc(OC(F)F)c(F)c4F)cnc23)ccc1C(=O)NCCCCC[N+](C)(C)CC1CNC1` [Example 96, Azetidin-3-ylmethyl-[5-[[4-[[3-[4-(difluoromethoxy)-2,3-difluoro-phenyl]imidazo[1,2-a]pyrazin-8-yl]amino]-2-ethyl-benzoyl]amino]pentyl]-dimethyl-ammonium bis(2,2,2-trifluoroacetate)], 171 nM; for `CCc1cc(Nc2nccn3c(-c4ccc(OC(F)F)c(F)c4F)cnc23)ccc1C(=O)N1CCC(C(=O)N2CC[N+](C)(CC3CCNC3)CC2)CC1` (stereo not drawn) [Example 97, [4-[[3-[4-(Difluoromethoxy)-2,3-difluoro-phenyl]imidazo[1,2-a]pyrazin-8-yl]amino]-2-ethyl-phenyl]-[4-[4-methyl-4-(pyrrolidin-3-ylmethyl)piperazin-4-ium-1-carbonyl]-1-piperidyl]methanone 2,2,2-trifluoroacetate], 205 nM.
Still for that read-out and setting: for `CCc1cc(Nc2nccn3c(-c4ccc(OC(F)F)c(F)c4F)cnc23)ccc1C(=O)NCCNC(=O)C1CC[N+](C)(CC2CCNC2)CC1` (stereo not drawn) [Example 102, N-[2-[[4-[[3-[4-(Difluoromethoxy)-2,3-difluoro-phenyl]imidazo[1,2-a]pyrazin-8-yl]amino]-2-ethyl-benzoyl]amino]ethyl]-1-methyl-1-(pyrrolidin-3-ylmethyl)piperidin-1-ium-4-carboxamide bis(2,2,2-trifluoroacetate)] the value was 223 nM.
On to `C[N+]1(CC2CCNC2)CCC(C(=O)N2CCN(C(=O)c3ccc(Nc4nccn5c(-c6ccc(OC(F)F)c(F)c6F)cnc45)cc3F)CC2)CC1` (stereo not drawn) [Example 103, [4-[[3-[4-(Difluoromethoxy)-2,3-difluoro-phenyl]imidazo[1,2-a]pyrazin-8-yl]amino]-2-fluoro-phenyl]-[4-[1-methyl-1-(pyrrolidin-3-ylmethyl)piperidin-1-ium-4-carbonyl]piperazin-1-yl]methanone 2,2,2-trifluoroacetate], for which the IC90 was 77.9 nM.
For `CCc1cc(Nc2nccn3c(-c4ccc(OC)c(F)c4F)cnc23)ccc1C(=O)NCCCCC[N+](C)(CCCCN)CC(=O)O` (stereo not drawn) [Example 105, 4-aminobutyl-(carboxymethyl)-[5-[[4-[[3-(2,3-difluoro-4-methoxy-phenyl)imidazo[1,2-a]pyrazin-8-yl]amino]-2-ethyl-benzoyl]amino]pentyl]-methyl-ammonium Formate], the IC90 turned out to be 144 nM.
Take `CCc1cc(Nc2nccn3c(-c4ccc(OC)c(F)c4F)cnc23)ccc1C(=O)NCCCCC[N+](C)(CC(=O)O)CC1CNC1` (stereo not drawn) [Example 106, Azetidin-3-ylmethyl-(carboxymethyl)-[5-[[4-[[3-(2,3-difluoro-4-methoxy-phenyl)imidazo[1,2-a]pyrazin-8-yl]amino]-2-ethyl-benzoyl]amino]pentyl]-methyl-ammonium Formate]: the IC90 was 241 nM.
Turning to `CCc1cc(Nc2nccn3c(-c4ccc(OC)c(F)c4F)cnc23)ccc1C(=O)NCCCCC[N+](C)(CCCC(=O)O)CC1CNC1` (stereo not drawn) [Example 107, Azetidin-3-ylmethyl-(3-carboxypropyl)-[5-[[4-[[3-(2,3-difluoro-4-methoxy-phenyl)imidazo[1,2-a]pyrazin-8-yl]amino]-2-ethyl-benzoyl]amino]pentyl]-methyl-ammonium 2,2,2-trifluoroacetate], the IC90 was determined as 434 nM.
In the case of `C[N+](C)(C)CCN[C@H]1C[C@@H](NC(=O)c2ccc(Nc3nccn4c(-c5c[nH]nc5C(F)(F)F)cnc34)cc2Cl)C1` [Example 108, 2-[[3-[[2-chloro-4-[[3-[3-(trifluoromethyl)-1H-pyrazol-4-yl]imidazo[1,2-a]pyrazin-8-yl]amino]benzoyl]amino]cyclobutyl]amino]ethyl-trimethyl-ammonium Formate], the IC90 turned out to be 1590 nM.
Still for that read-out and setting: for `CCc1cc(Nc2nccn3c(-c4cn(CC#N)nc4C(F)(F)F)cnc23)ccc1C(=O)NCCCCC[N+](C)(CC(=O)O)CC1CNC1` (stereo not drawn) [Example 109, Azetidin-3-ylmethyl-(carboxymethyl)-[5-[[4-[[3-[1-(cyanomethyl)-3-(trifluoromethyl)pyrazol-4-yl]imidazo[1,2-a]pyrazin-8-yl]amino]-2-ethyl-benzoyl]amino]pentyl]-methyl-ammonium Formate] the value was 3830 nM.
Take `CCc1cc(Nc2nccn3c(-c4cn(CC#N)nc4C(F)(F)F)cnc23)ccc1C(=O)NCCCCC[N+](C)(C)CC(=O)O` [Example 110, Carboxymethyl-[5-[[4-[[3-[1-(cyanomethyl)-3-(trifluoromethyl)pyrazol-4-yl]imidazo[1,2-a]pyrazin-8-yl]amino]-2-ethyl-benzoyl]amino]pentyl]-dimethyl-ammonium Formate]: the IC90 amounted to 4300 nM.
As for `Cc1cc(Nc2nccn3c(-c4cn(C)nc4C(F)(F)F)cnc23)ccc1C(=O)N1CCN(C(=O)C[N+](C)(C)C)CC1` [Example 111, Trimethyl-[2-[4-[2-methyl-4-[[3-[1-methyl-3-(trifluoromethyl)pyrazol-4-yl]imidazo[1,2-a]pyrazin-8-yl]amino]benzoyl]piperazin-1-yl]-2-oxo-ethyl]ammonium Formate], the IC90 is 2800 nM.
`CCc1cc(Nc2nccn3c(-c4ccc(OC)c(F)c4F)cnc23)ccc1C(=O)NCCCCC[N+](C)(CC(=O)O)CC(=O)O` [Example 112, bis(carboxymethyl)-[5-[[4-[[3-(2,3-difluoro-4-methoxy-phenyl)imidazo[1,2-a]pyrazin-8-yl]amino]-2-ethyl-benzoyl]amino]pentyl]-methyl-ammonium 2,2,2-trifluoroacetate]: the IC90 is 2560 nM.
With `CCc1cc(Nc2nccn3c(-c4cn(CC(F)F)nc4C(F)(F)F)cnc23)ccc1C(=O)NCCCCC[N+](C)(C)CC(=O)O` [Example 113, Carboxymethyl-[5-[[4-[[3-[1-(2,2-difluoroethyl)-3-(trifluoromethyl)pyrazol-4-yl]imidazo[1,2-a]pyrazin-8-yl]amino]-2-ethyl-benzoyl]amino]pentyl]-dimethyl-ammonium Formate], the IC90 worked out at 2480 nM.

Still in this experiment, the particulars now being: Acinetobacter baumannii, ATCC17961, 16 h, read-out: ATCC 17961 IC90.
Regarding `CCc1cc(Nc2nccn3c(-c4ccc(OC(F)F)c(F)c4F)cnc23)ccc1C(=O)NCCC1C[N+](C)(CC2CNC2)C1` (stereo not drawn) [Example 90, N-[2-[1-(azetidin-3-ylmethyl)-1-methyl-azetidin-1-ium-3-yl]ethyl]-4-[[3-[4-(difluoromethoxy)-2,3-difluoro-phenyl]imidazo[1,2-a]pyrazin-8-yl]amino]-2-ethyl-benzamide Diformate], the IC90 came out at 320 nM.
Still for that read-out and setting: for `CCc1cc(Nc2nccn3c(-c4ccc(OC)c(F)c4F)cnc23)ccc1C(=O)NCCCCC[N+](C)(CCCN)CC(=O)O` (stereo not drawn) [Example 104, 3-aminopropyl-(carboxymethyl)-[5-[[4-[[3-(2,3-difluoro-4-methoxy-phenyl)imidazo[1,2-a]pyrazin-8-yl]amino]-2-ethyl-benzoyl]amino]pentyl]-methyl-ammonium Formate] the value was 118 nM.

Broadly, the IC90 is the point of the concentration-response curve where the effect stands at 90%.
